In paper PMC9668928, “Zandelisib (ME-401) in Japanese patients with relapsed or refractory indolent non-Hodgkin’s lymphoma: an open-label, multicenter, dose-escalation phase 1 study” (International Journal of Hematology, 2022):

System: Japanese patients with R/R iNHL
Assay: Phase 1 dose-escalation study: safety and tolerability (TEAEs, DLTs)
Format: in vivo
Description: Japanese patients aged ≥ 20 years with R/R iNHL histologically confirmed as FL, nodal MZL, extra-nodal MZL of mucosa-associated lymphoid tissue, small lymphocytic lymphoma, lymphoplasmacytic lymphoma, Waldenström’s macroglobulinemia, or equivalent, according to World Health Organization classification, were eligible for this study. Other key eligibility criteria included being PI3K inhibitor therapy-naïve and an Eastern Cooperative Oncology Group performance status of 0 or 1. Further details of inclusion and exclusion criteria are provided in Supplementary Table 1.
This was a multicenter, open-label, dose-escalation, phase 1 study in Japan. All patients received oral zandelisib once daily at the same time each day, at least 1 h before or 2 h after a meal (CS: continuous schedule). Each treatment cycle was 28 days. Definitions of the DLTs described in this study can be found in Supplementary Table 2. The observation period for DLTs was from day 1 of Cycle 1 to day 1 of Cycle 2. Zandelisib was administered until disease progression or unacceptable toxicity. In the event of an AE, patients could be switched to IDT. In the case of disease progression while receiving IDT, patients could be switched back to CS per the investigator’s discretion.
A starting dose of 45 mg was set for investigating patient safety. This study adopted a standard 3 + 3 design. […] If DLTs occurred in 2 or more patients, the study was planned to be suspended pending a safety evaluation. If a DLT occurred in 1 patient, 3 further patients were added to cohort 1. If DLTs occurred in 0/3 or 1/6 patients in cohort 1, dosing in cohort 2 commenced (n = 6; 60 mg/day). If the incidence of DLTs in cohort 2 was ≤ 1/6, the maximum tolerated dose was not determined, and the dose in cohort 2 was to be selected as the recommended Japanese phase 2 dose.
The primary endpoint was the safety [number of patients with treatment-emergent adverse events (TEAEs), based on Common Terminology Criteria for Adverse Events version 5.0] and tolerability (including laboratory values, vital signs, and electrocardiogram performance) of zandelisib in Japanese patients. Hepatobiliary disorder, aspartate/alanine (AST/ALT) increased, diarrhea/colitis, organizing pneumonia, stomatitis, or rash were defined as irAEs in this manuscript. Secondary endpoints included PK (plasma concentrations and PK parameters) and the efficacy of zandelisib. […] The PK parameters for Cycle 1 day 1 and Cycle 2 day 1 were calculated for each patient by non-compartmental analysis. PK parameters included maximum plasma drug concentration (Cmax), area under the plasma concentration–time curve (AUC) from time zero to the last measurable point (AUC0–t), the AUC from time zero to infinity (AUC0-inf), and terminal half-life (t1/2).

SMILES: CN1CCC(c2ccccc2CC(C)(C)Nc2nc(N3CCOCC3)nc(-n3c(C(F)F)nc4ccccc43)n2)CC1 [zandelisib]
- Grade 3 irAEs (45 mg): 2 patients
- deaths (45 mg and 60 mg): no deaths were observed
- TEAE ALT increased, All grades (45 mg, n = 3): 2 (66.7) n (%)
- TEAE ALT increased, Grade ≥ 3 (45 mg, n = 3): 0 n (%)
- TEAE AST increased, All grades (45 mg, n = 3): 2 (66.7) n (%)
- TEAE AST increased, Grade ≥ 3 (45 mg, n = 3): 0 n (%)
- TEAE Abdominal discomfort, All grades (45 mg, n = 3): 0 n (%)
- TEAE Abdominal discomfort, Grade ≥ 3 (45 mg, n = 3): 0 n (%)
- TEAE Abdominal pain upper, All grades (45 mg, n = 3): 1 (33.3) n (%)
- TEAE Abdominal pain upper, Grade ≥ 3 (45 mg, n = 3): 0 n (%)
- TEAE Amylase increased, All grades (45 mg, n = 3): 1 (33.3) n (%)
- TEAE Amylase increased, Grade ≥ 3 (45 mg, n = 3): 0 n (%)
- TEAE Anemia, All grades (45 mg, n = 3): 1 (33.3) n (%)
- TEAE Anemia, Grade ≥ 3 (45 mg, n = 3): 0 n (%)
- TEAE Arthralgia, All grades (45 mg, n = 3): 1 (33.3) n (%)
- TEAE Arthralgia, Grade ≥ 3 (45 mg, n = 3): 0 n (%)
- TEAE Back pain, All grades (45 mg, n = 3): 1 (33.3) n (%)
- TEAE Back pain, Grade ≥ 3 (45 mg, n = 3): 0 n (%)
- TEAE Blepharitis, All grades (45 mg, n = 3): 0 n (%)
- TEAE Blepharitis, Grade ≥ 3 (45 mg, n = 3): 0 n (%)
- TEAE Blood and lymphatic system disorders (SOC), All grades (45 mg, n = 3): 1 (33.3) n (%)
- TEAE Blood and lymphatic system disorders (SOC), Grade ≥ 3 (45 mg, n = 3): 0 n (%)
- TEAE Blood creatinine increased, All grades (45 mg, n = 3): 0 n (%)
- TEAE Blood creatinine increased, Grade ≥ 3 (45 mg, n = 3): 0 n (%)
- TEAE Bradycardia, All grades (45 mg, n = 3): 1 (33.3) n (%)
- TEAE Bradycardia, Grade ≥ 3 (45 mg, n = 3): 0 n (%)
- TEAE CMV test positive, All grades (45 mg, n = 3): 1 (33.3) n (%)
- TEAE CMV test positive, Grade ≥ 3 (45 mg, n = 3): 0 n (%)
- TEAE Cardiac disorders (SOC), All grades (45 mg, n = 3): 1 (33.3) n (%)
- TEAE Cardiac disorders (SOC), Grade ≥ 3 (45 mg, n = 3): 0 n (%)
- TEAE Conjunctivitis, All grades (45 mg, n = 3): 1 (33.3) n (%)
- TEAE Conjunctivitis, Grade ≥ 3 (45 mg, n = 3): 0 n (%)
- TEAE Constipation, All grades (45 mg, n = 3): 2 (66.7) n (%)
- TEAE Constipation, Grade ≥ 3 (45 mg, n = 3): 0 n (%)
- TEAE Cough, All grades (45 mg, n = 3): 0 n (%)
- TEAE Cough, Grade ≥ 3 (45 mg, n = 3): 0 n (%)
- TEAE Cytomegalovirus viremia, All grades (45 mg, n = 3): 1 (33.3) n (%)
- TEAE Decreased appetite, All grades (45 mg, n = 3): 1 (33.3) n (%)
- TEAE Decreased appetite, Grade ≥ 3 (45 mg, n = 3): 1 (33.3) n (%)
- TEAE Diarrhea, All grades (45 mg, n = 3): 2 (66.7) n (%)
- TEAE Diarrhea, Grade ≥ 3 (45 mg, n = 3): 1 (33.3) n (%)
- TEAE Drug hypersensitivity, All grades (45 mg, n = 3): 0 n (%)
- TEAE Drug hypersensitivity, Grade ≥ 3 (45 mg, n = 3): 0 n (%)
- TEAE Drug-induced liver injury, All grades (45 mg, n = 3): 0 n (%)
- TEAE Drug-induced liver injury, Grade ≥ 3 (45 mg, n = 3): 0 n (%)
- TEAE Dry eye, All grades (45 mg, n = 3): 1 (33.3) n (%)
- TEAE Dry eye, Grade ≥ 3 (45 mg, n = 3): 0 n (%)
- TEAE Dry skin, All grades (45 mg, n = 3): 1 (33.3) n (%)
- TEAE Dry skin, Grade ≥ 3 (45 mg, n = 3): 0 n (%)
- TEAE Dysgeusia, All grades (45 mg, n = 3): 1 (33.3) n (%)
- TEAE Dysgeusia, Grade ≥ 3 (45 mg, n = 3): 0 n (%)
- TEAE Dyspnea, All grades (45 mg, n = 3): 1 (33.3) n (%)
- TEAE Dyspnea, Grade ≥ 3 (45 mg, n = 3): 1 (33.3) n (%)
- TEAE Ear and labyrinth disorders (SOC), All grades (45 mg, n = 3): 1 (33.3) n (%)
- TEAE Ear and labyrinth disorders (SOC), Grade ≥ 3 (45 mg, n = 3): 0 n (%)
- TEAE Eczema, All grades (45 mg, n = 3): 0 n (%)
- TEAE Eczema, Grade ≥ 3 (45 mg, n = 3): 0 n (%)
- TEAE Eosinophil count increased, All grades (45 mg, n = 3): 1 (33.3) n (%)
- TEAE Eosinophil count increased, Grade ≥ 3 (45 mg, n = 3): 0 n (%)
- TEAE Erythema multiforme, All grades (45 mg, n = 3): 0 n (%)
- TEAE Erythema multiforme, Grade ≥ 3 (45 mg, n = 3): 0 n (%)
- TEAE Eye disorders (SOC), All grades (45 mg, n = 3): 1 (33.3) n (%)
- TEAE Eye disorders (SOC), Grade ≥ 3 (45 mg, n = 3): 0 n (%)
- TEAE Flank pain, All grades (45 mg, n = 3): 0 n (%)
- TEAE Flank pain, Grade ≥ 3 (45 mg, n = 3): 0 n (%)
- TEAE GGT increased, All grades (45 mg, n = 3): 0 n (%)
- TEAE GGT increased, Grade ≥ 3 (45 mg, n = 3): 0 n (%)
- TEAE Gastrointestinal disorders (SOC), All grades (45 mg, n = 3): 2 (66.7) n (%)
- TEAE Gastrointestinal disorders (SOC), Grade ≥ 3 (45 mg, n = 3): 2 (66.7) n (%)
- TEAE General disorders and administration site conditions (SOC), All grades (45 mg, n = 3): 1 (33.3) n (%)
- TEAE General disorders and administration site conditions (SOC), Grade ≥ 3 (45 mg, n = 3): 0 n (%)
- TEAE Hepatic function abnormal, All grades (45 mg, n = 3): 1 (33.3) n (%)
- TEAE Hepatic function abnormal, Grade ≥ 3 (45 mg, n = 3): 0 n (%)
- TEAE Hepatobiliary disorders (SOC), All grades (45 mg, n = 3): 1 (33.3) n (%)
- TEAE Hepatobiliary disorders (SOC), Grade ≥ 3 (45 mg, n = 3): 0 n (%)
- TEAE Herpes simplex, All grades (45 mg, n = 3): 1 (33.3) n (%)
- TEAE Herpes simplex, Grade ≥ 3 (45 mg, n = 3): 0 n (%)
- TEAE Herpes zoster, All grades (45 mg, n = 3): 0 n (%)
- TEAE Herpes zoster, Grade ≥ 3 (45 mg, n = 3): 0 n (%)
- TEAE Hypoesthesia, All grades (45 mg, n = 3): 1 (33.3) n (%)
- TEAE Hypoesthesia, Grade ≥ 3 (45 mg, n = 3): 0 n (%)
- TEAE Hypogammaglobulinemia, All grades (45 mg, n = 3): 2 (66.7) n (%)
- TEAE Hypogammaglobulinemia, Grade ≥ 3 (45 mg, n = 3): 0 n (%)
- TEAE Immune system disorders (SOC), All grades (45 mg, n = 3): 2 (66.7) n (%)
- TEAE Immune system disorders (SOC), Grade ≥ 3 (45 mg, n = 3): 0 n (%)
- TEAE Infections and infestations (SOC), All grades (45 mg, n = 3): 2 (66.7) n (%)
- TEAE Infections and infestations (SOC), Grade ≥ 3 (45 mg, n = 3): 0 n (%)
- TEAE Infusion site extravasation, All grades (45 mg, n = 3): 1 (33.3) n (%)
- TEAE Infusion site extravasation, Grade ≥ 3 (45 mg, n = 3): 0 n (%)
- TEAE Insomnia, All grades (45 mg, n = 3): 1 (33.3) n (%)
- TEAE Insomnia, Grade ≥ 3 (45 mg, n = 3): 0 n (%)
- TEAE Investigations (SOC), All grades (45 mg, n = 3): 3 (100.0) n (%)
- TEAE Investigations (SOC), Grade ≥ 3 (45 mg, n = 3): 2 (66.7) n (%)
- TEAE Joint effusion, All grades (45 mg, n = 3): 1 (33.3) n (%)
- TEAE Joint effusion, Grade ≥ 3 (45 mg, n = 3): 0 n (%)
- TEAE Lymphocyte count decreased, All grades (45 mg, n = 3): 2 (66.7) n (%)
- TEAE Lymphocyte count decreased, Grade ≥ 3 (45 mg, n = 3): 1 (33.3) n (%)
- TEAE Metabolism and nutrition disorders (SOC), All grades (45 mg, n = 3): 1 (33.3) n (%)
- TEAE Metabolism and nutrition disorders (SOC), Grade ≥ 3 (45 mg, n = 3): 1 (33.3) n (%)
- TEAE Muscle spasms, All grades (45 mg, n = 3): 1 (33.3) n (%)
- TEAE Muscle spasms, Grade ≥ 3 (45 mg, n = 3): 0 n (%)
- TEAE Musculoskeletal and connective tissue disorders (SOC), All grades (45 mg, n = 3): 2 (66.7) n (%)
- TEAE Musculoskeletal and connective tissue disorders (SOC), Grade ≥ 3 (45 mg, n = 3): 0 n (%)
- TEAE Nasopharyngitis, All grades (45 mg, n = 3): 2 (66.7) n (%)
- TEAE Nasopharyngitis, Grade ≥ 3 (45 mg, n = 3): 0 n (%)
- TEAE Nausea, All grades (45 mg, n = 3): 1 (33.3) n (%)
- TEAE Nausea, Grade ≥ 3 (45 mg, n = 3): 0 n (%)
- TEAE Nervous system disorders (SOC), All grades (45 mg, n = 3): 1 (33.3) n (%)
- TEAE Nervous system disorders (SOC), Grade ≥ 3 (45 mg, n = 3): 0 n (%)
- TEAE Neutrophil count decreased, All grades (45 mg, n = 3): 2 (66.7) n (%)
- TEAE Neutrophil count decreased, Grade ≥ 3 (45 mg, n = 3): 1 (33.3) n (%)
- TEAE Oral herpes, All grades (45 mg, n = 3): 1 (33.3) n (%)
- TEAE Oral herpes, Grade ≥ 3 (45 mg, n = 3): 0 n (%)
- TEAE Organizing pneumonia, All grades (45 mg, n = 3): 1 (33.3) n (%)
- TEAE Organizing pneumonia, Grade ≥ 3 (45 mg, n = 3): 1 (33.3) n (%)
- TEAE Oropharyngeal pain, All grades (45 mg, n = 3): 0 n (%)
